Data set [1] is described as follows: Physical stability test (XRPD) of crystal forms under different placement conditions. Format: physicochemical. As to conditions: for Physical stability, conclusion from Table 7: C, D, H changed after one week, A, B, I did not change after one month; for Physical stability (XRPD): 1 week. The method, then: Physical stability test was carried out on the samples of crystal forms A, B, C, D, H and I under different placement conditions. The placement conditions were:
1. 40° C., humidity 75%, open/sealed;
2. 25° C., humidity 60%, open; and […]

Data set [2] can be described thus: Chemical stability under different placement conditions. Format: physicochemical. As to conditions: 40° C., humidity 75%, open/sealed, 25° C., humidity 60%, or 2-6° C.
Data set [3] can be described thus: XRPD after standing at 0% humidity for 10 days. Format: physicochemical. From the text: The samples of crystal forms A and B were left to stand under the condition of 0% humidity for 10 days, and subjected to XRPD to investigate the stability of the crystal form under the low humidity condition.
The nature of data set [4]: XRPD comparison of crystal forms before and after the DVS test. Format: physicochemical. As to conditions: for Crystal form change before and after the DVS test (XRPD): 25° C., water, 50%-95%-0%-95%-50% RH; for Stability / sensitivity to humidity: conclusion from XRPD before and after DVS test. The method, then: XRPD test was carried out on the samples of crystal forms A, B and I after the DVS test, and the XRPD results of each crystal form before and after the DVS test were compared.
DVS instrument parameters:
Maximum step size: 360 minutes

A short description of data set [5]: Chemical stability under different humidity conditions, impurity content by HPLC. Type of data set: physicochemical. To be noted: for Total impurity content (%): HPLC; for Impurity content level / Change of impurity content under various conditions: conclusion from Table 8; for Change of impurity content under various conditions: humidity 0%, 75%, 92.5% (25° C.), up to 30 days. The method, then: The samples of crystal forms A, B and I were left to stand under different humidity conditions to test their chemical stability. The impurity content was determined by HPLC (HPLC detection conditions: ZORBAX SB-C18 4.6*150 mm 3.5 μm, mobile phase: TFA/methanol/water, detection wavelength: 223 nm).

Data set [6] in a line: XRPD comparison of crystal forms before and after DSC heating. Format: physicochemical. How it is done: XRPD test was carried out on the samples of crystal forms A, B and I after the DSC test.
Data set [7] relates to prolyl hydroxylase. As to conditions: as disclosed in WO2017059623; cited from earlier work.
The mark [8] stands for this setting: Humidity 92.5% (25° C.), 5 days.
[9] abbreviates: Humidity 92.5% (25° C.), 10 days.
The mark [10] stands for this setting: Humidity 92.5% (25° C.), 30 days.

Structures are written as SMILES.

The values below come from patent publication US11014888B2, “Crystalline form of alkynyl pyridine prolyl hydroxylase inhibitor and method for preparing same” (JIANGSU HENGRUI MEDICINE CO., LTD., priority 2017, dated 2021).

For the compound `O=C(O)CNC(=O)c1ncc(C#CCOc2ccc(Cl)cc2)cc1O` [crystal form B, 2-(3-hydroxy-5-(3-p-chlorophenoxypropyn-1-yl))picolinamido acetic acid], the “Physical stability, conclusion from Table 7” value (from here on “Physical stability, conclusion”) in data set [1] is reported as “good physical stability”. Moreover, the “Chemical stability under different placement conditions” value in data set [2] is “excellent chemical stability”. Also, in data set [3], the “Crystal form change under low humidity (XRPD)” value is given as “did not change”. Moreover, the “Crystal form change before and after the DVS test (XRPD)” value in data set [4] is “did not change”. Also, the “Stability / sensitivity to humidity” value in data set [4] was “most stable to humidity”. Besides, the “Total impurity content (%)” value in data set [5] (Day 0) stood at 0.95%; in data set [5] (Humidity 0% (25° C.), 5 days), 0.97%; in data set [5] (Humidity 0% (25° C.), 10 days), 1.03%; in data set [5] (Humidity 0% (25° C.), 30 days) it was 1.09%; in data set [5] (Humidity 75% (25° C.), 5 days) it was 0.94%; in data set [5] (Humidity 75% (25° C.), 10 days) it was 0.98%. Also, the “Total impurity content (%)” value is recorded as 1.06% in data set [5] (Humidity 75% (25° C.), 30 days); 0.98% in data set [5] (setting [8]); 0.98% in data set [5] (setting [9]); 1.02% in data set [5] (setting [10]). In addition, the Impurity content level result in data set [5] was “low impurity content”. In addition, in data set [5], the “Change of impurity content under various conditions” value (shortened to “Change of impurity content”) was “substantially did not increase”. Besides, the “Crystal form change after DSC heating (XRPD)” value in data set [6] (after heating to 135° C.) was “did not change”.

For the compound `O=C(O)CNC(=O)c1ncc(C#CCOc2ccc(Cl)cc2)cc1O` [crystal form H, 2-(3-hydroxy-5-(3-p-chlorophenoxypropyn-1-yl))picolinamido acetic acid], the “Physical stability (XRPD)” value in data set [1] (40° C. open (humidity 75%)) is “x (x means that the crystal form changed)”. Besides, the “Physical stability, conclusion” value in data set [1] is reported as “poor physical stability”.

In the case of `O=C(O)CNC(=O)c1ncc(C#CCOc2ccc(Cl)cc2)cc1O` [crystal form C, 2-(3-hydroxy-5-(3-p-chlorophenoxypropyn-1-yl))picolinamido acetic acid], the “Physical stability (XRPD)” value in data set [1] (4° C. sealed), in data set [1] (25° C. open (humidity 60%)), in data set [1] (40° C. open (humidity 75%)) and in data set [1] (40° C. sealed (humidity 75%)) was “x (x means that the crystal form changed)” in each case. In data set [1], the “Physical stability, conclusion” value is listed as “poor physical stability”.

Consider `O=C(O)CNC(=O)c1ncc(C#CCOc2ccc(Cl)cc2)cc1O` [crystal form D, 2-(3-hydroxy-5-(3-p-chlorophenoxypropyn-1-yl))picolinamido acetic acid], for which the “Physical stability (XRPD)” value in data set [1] (4° C. sealed), in data set [1] (25° C. open (humidity 60%)), in data set [1] (40° C. open (humidity 75%)) and in data set [1] (40° C. sealed (humidity 75%)) was “x (x means that the crystal form changed)” throughout. Also, the “Physical stability, conclusion” value in data set [1] is on record as “poor physical stability”.

In the case of `O=C(O)CNC(=O)c1ncc(C#CCOc2ccc(Cl)cc2)cc1O` [crystal form A, 2-(3-hydroxy-5-(3-p-chlorophenoxypropyn-1-yl))picolinamido acetic acid], in data set [1], the “Physical stability, conclusion” value is reported as “good physical stability”. Further, in data set [3], the “Crystal form change under low humidity (XRPD)” value is given as “changed”. Besides, the “Crystal form change before and after the DVS test (XRPD)” value in data set [4] is on record as “did not change, but the crystallinity thereof decreased”. Besides, the “Total impurity content (%)” value was determined as 1.88% in data set [5] (Day 0); 1.89% in data set [5] (Humidity 0% (25° C.), 5 days); 2.00% in data set [5] (Humidity 0% (25° C.), 10 days); 2.14% in data set [5] (Humidity 0% (25° C.), 30 days); 1.92% in data set [5] (Humidity 75% (25° C.), 5 days); 1.97% in data set [5] (Humidity 75% (25° C.), 10 days). The “Total impurity content (%)” value stood at 2.17% in data set [5] (Humidity 75% (25° C.), 30 days); 1.96% in data set [5] (setting [8]); 1.99% in data set [5] (setting [9]); 2.05% in data set [5] (setting [10]). The Impurity content level entry in data set [5] was “relatively high impurity content”. In data set [5], the “Change of impurity content” value is reported as “changed significantly”. In addition, in data set [6] (after heating to 105° C.), the “Crystal form change after DSC heating (XRPD)” value is recorded as “changed”.

With `O=C(O)CNC(=O)c1ncc(C#CCOc2ccc(Cl)cc2)cc1O` [crystal form I, 2-(3-hydroxy-5-(3-p-chlorophenoxypropyn-1-yl))picolinamido acetic acid], the “Physical stability, conclusion” value in data set [1] was “good physical stability”. Moreover, in data set [4], the “Crystal form change before and after the DVS test (XRPD)” value is given as “changed”. The “Stability / sensitivity to humidity” value in data set [4] is given as “most sensitive to humidity”. For the same compound, the “Total impurity content (%)” value in data set [5] (Day 0) is on record as 1.56%; in data set [5] (Humidity 0% (25° C.), 5 days), 1.57%; in data set [5] (Humidity 0% (25° C.), 10 days), 1.58%; in data set [5] (Humidity 0% (25° C.), 30 days) it was 2.06%; in data set [5] (Humidity 75% (25° C.), 5 days) it was 1.72%; in data set [5] (Humidity 75% (25° C.), 10 days) it was 1.78%. Besides, the “Total impurity content (%)” value in data set [5] (Humidity 75% (25° C.), 30 days) amounted to 1.88%; in data set [5] (setting [8]) it was 1.90%; in data set [5] (setting [9]), 2.24%; in data set [5] (setting [10]), 2.22%. The Impurity content level entry in data set [5] is “relatively high impurity content”. Moreover, the “Change of impurity content” value in data set [5] is reported as “changed significantly”. Also, the “Crystal form change after DSC heating (XRPD)” value in data set [6] (after heating to 105° C.) is reported as “changed”.

Consider `O=C(O)CNC(=O)c1ncc(C#CCOc2ccc(Cl)cc2)cc1O` [compound of formula (I), 2-(3-hydroxy-5-(3-p-chlorophenoxypropyn-1-yl))picolinamido acetic acid], for which the “Inhibition effect on prolyl hydroxylase” value in data set [7] is recorded as “excellent inhibition effect”.
